In US20140187556A1, “ANTI-AMYLOID COMPOUNDS AND METHODS” (Treventis Corporation, priority 2011, published 2014):

Columns and labels:
Tau441 = Tau441 (Homo sapiens, UniProt P10636); assay: Thioflavin S (ThS) tau aggregation assay; format: biochemical; settings: 20 μM, FIG. 1
Protocol: Analogous to the method of Example 1, the ability of compounds to inhibit the aggregation of tau was performed by substituting […] with tau and Thioflavin T with Thioflavin S.

alpha-synuclein = alpha-synuclein (Homo sapiens, UniProt P37840); assay: alpha-synuclein aggregation assay (ThT, analogous to Example 1); format: biochemical; settings: 10 μM compound
Protocol: Analogous to the method of Example 1, the ability of compounds to inhibit the aggregation of alpha-synuclein was performed by substituting Aβ with alpha-synuclein.

[1] = Metabolic stability in mouse liver microsomes; format: in vitro ADME; settings: 1 μM compound, 0.5 mg/mL microsomal protein, 1 mM NADPH
Protocol: This assay is used to determine the percent remaining and intrinsic clearance of a test compound incubated with pooled mouse liver microsomes in the presence of NADPH. Further details on this method may be found in Jeffrey P, et al., Utility of metabolic stability screening: comparison of in vitro and in vivo clearance. enobiotica. 2001 August-September; 31(8-9):591-8 and Lin J H, et al., Role of pharmacokinetics and metabolism in drug discovery and development. Pharmacol Rev. 1997; 49(4):403-49; each of which is hereby incorporated by reference. Test compound was formulated in 300 μL of DMSO at 10 mM and was diluted to 1 μM with final concentration of organic solvent <0.25% for the experiment. Pooled liver microsomes were prepared from male mice, with 1 mM NADPH. Test compound was incubated at 37 degrees Celsius in buffer containing 0.5 mg/mL microsomal protein; the reaction was initiated by adding cofactors and sampled at 0, 10, 20, 30, and 60 minutes. A positive control (5 μM testosterone) was incubated and initiated in parallel for quality control. Samples were analyzed using an LTQ-Orbitrap XL mass spectrometer; HRMS was used to determine the peak area response ratio (peak area corresponding to test compound or control divided by that of an analytical internal standard) without running a standard curve.
Results were reported for selected compounds in the table of Example 1, as % test compound remaining after 60 minutes. Compounds which have less than about 5% remaining are not considered to be metabolically stable in mouse liver microsomes, while compounds with more than about 5% remaining are considered to be metabolically stable in mouse liver microsomes.

Tau441, sequence (P10636 1-441 isoform P10636-8): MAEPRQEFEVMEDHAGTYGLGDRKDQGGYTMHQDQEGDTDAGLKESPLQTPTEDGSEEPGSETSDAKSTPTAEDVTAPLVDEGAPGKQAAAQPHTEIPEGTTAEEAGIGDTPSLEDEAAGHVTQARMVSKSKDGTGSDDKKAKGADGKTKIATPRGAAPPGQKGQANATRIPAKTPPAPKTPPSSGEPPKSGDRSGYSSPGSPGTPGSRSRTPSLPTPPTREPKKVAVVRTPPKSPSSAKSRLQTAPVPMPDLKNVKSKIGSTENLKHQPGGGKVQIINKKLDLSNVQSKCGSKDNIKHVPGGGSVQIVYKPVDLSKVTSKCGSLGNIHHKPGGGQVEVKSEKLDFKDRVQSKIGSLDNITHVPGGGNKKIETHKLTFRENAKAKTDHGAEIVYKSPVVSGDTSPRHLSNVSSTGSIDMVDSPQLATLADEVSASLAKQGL

relative potency in tau aggregation assay (lower fluorescence is better) (Tau441): Most potent | Stability in mouse liver microsomes (% test compound remaining after 60 min) [1]: 34%
Compound: O=[N+]([O-])c1ccc(-c2cccc(C(O)C(F)(F)F)c2)cc1NCc1ccccc1 (stereo not drawn) [TRV 1140, 1-(3′-(benzylamino)-4′-nitro-[1,1′-biphenyl]-3-yl)-2,2,2-trifluoroethanol]
inhibition of alpha-synuclein aggregation (alpha-synuclein): inhibit alpha-synuclein aggregation at 10 μM
